This note sets out measurements from patent US8765464B2, “Kit for culturing cells comprising tube with flat wall, extracellular matrix and culture medium” (Kurashiki Boseki Kabushiki Kaisha, priority 2001, dated 2014).

Data set [1] relates to C-1, A-549, MKN-28, HFL-1 and WI-38 cell lines. Description: Confirmation test of cell toxicity according to vancomycin amount: cell proliferativity in preliminary culture step, cell lines. The class given is cell-based, human. To be noted: various cells, after 48 hours from the beginning of the culture. The procedure: (§1) Specifically, it is confirmed whether the vancomycin in the culture medium of the preliminary culture step has a unfavorable influence upon the cell proliferativity in the preliminary culture step, the cell proliferativity in the proliferative culture step, and the anticancer agent sensitivity test results or not, and then the following test was carried out. Herein, the unfavorable influence means such an influence as causes to decrease the cell proliferativity and success rate of the anticancer agent sensitivity test.
(§2) As to the test material and the number of cells as seeded (test material/number of cells as seeded), the following were used: • C-1 (human colon cancer cell line)/1×10^5 cells/well • A-549 (human lung cancer cell line)/1×10^5 cells/well • MKN-28 human stomach cancer cell line)/1×10^5 cells/well • HFL-1 and WI-38 (human fibroblast cells line)/1×10^5 cells/well • Lung-k human primary lung cancer cells)/5×10^5 cells/well (in the preliminary culture step) or 2×10^5 cells/well (in the proliferative culture step) […]
(§3) […] After the cells were counted with a blood-cell counter board, the cell number per 1 ml of the culture medium was calculated, and the cell proliferativity in the preliminary culture step was observed.

Data set [2] concerns Lung-k human primary lung cancer cells. Description: Confirmation test of cell toxicity according to vancomycin amount: preliminary culture step, primary cells. To be noted: human primary culturing cells, after 48 hours from the beginning of the culture. The class given is cell-based. The method, then:
as §1, §2, §3

Data set [3] has as its system C-1, A-549, MKN-28, HFL-1, WI-38 cell lines and Lung-k primary lung cancer cells. The data set can be described thus: Confirmation test of cell toxicity according to vancomycin amount: cell proliferativity in proliferative culture step. To be noted: vancomycin not more than 3.0 mg/ml added in the preliminary culture step; after 7 days culture. The class given is cell-based, human. From the text: (§4) As to the test material and the number of cells as seeded (test material/number of cells as seeded), the following were used: • C-1 (human colon cancer cell line)/1×10^5 cells/well • A-549 (human lung cancer cell line)/1×10^5 cells/well • MKN-28 human stomach cancer cell line)/1×10^5 cells/well • HFL-1 and WI-38 (human fibroblast cells line)/1×10^5 cells/well • Lung-k human primary lung cancer cells)/5×10^5 cells/well (in the preliminary culture step) or 2×10^5 cells/well (in the proliferative culture step)
(§5) The culture medium in the preliminary culture step was a culture medium as used in Example 1, and only the concentrations of the vancomycin produced by Wako Pure Chemicals Co., Ltd.) therein were settled in the following conditions: 0.1 mg/ml, 0.5 mg/ml, 1.0 mg/ml, 1.5 mg/ml, 2.0 mg/ml, 2.5 mg/ml, 3.0 mg/ml, 4.0 mg/ml, and 5.0 mg/ml, and tests were carried out in each condition. […]
(§6) (5) The resultant test plate is quantitatively analyzed with an image analyzer, and then the unfavorable influence upon the cell proliferativity and the anticancer agent sensitivity test results (antitumor effect T/C (%): relative proliferation ratio T/C (%) between a group non-treated with anticancer agents (C) and a group treated with anticancer agents (T), in the case where the ratio is not more than 50%, it is defined as having a sensitivity.) are observed. […]

For data set [4] the test system is unchanged. The data set can be described thus: Influence of vancomycin amount upon anticancer agent sensitivity test results. To be noted: vancomycin not more than 3.0 mg/ml added in the preliminary culture step; Taxol, Taxotere, Gemcitabine, Navelbine. The class given is cell-based, human.
Excerpt: as §4, §5, §6

Where a name gives a salt, the structure may show the parent alone.

Regarding `CN[C@H](CC(C)C)C(=O)N[C@H]1C(=O)N[C@@H](CC(N)=O)C(=O)N[C@H]2C(=O)N[C@H]3C(=O)N[C@H](C(=O)N[C@H](C(=O)O)c4cc(O)cc(O)c4-c4cc3ccc4O)[C@H](O)c3ccc(c(Cl)c3)Oc3cc2cc(c3O[C@@H]2O[C@H](CO)[C@@H](O)[C@H](O)[C@H]2O[C@H]2C[C@](C)(N)[C@H](O)[C@H](C)O2)Oc2ccc(cc2Cl)[C@H]1O` [vancomycin, vancomycin hydrochloride], in data set [1], the “vancomycin concentration at which the cell proliferation was as good as without vancomycin” value is “not more than 2.0 mg/ml”. The “vancomycin concentration at which the cell number was maintained and cell toxicity (cells-killing action) was not observed” value in data set [2] was “not more than 3.0 mg/ml”. Also, in data set [3], the “unfavorable influence upon the cell proliferativity in the proliferative culture step” value was “not found”. Besides, the “unfavorable influence upon the anticancer agent sensitivity test results (antitumor effect T/C (%))” value in data set [4] is given as “no unfavorable influence”.
